Experiments:
[1] = test system: carrageenan-induced paw edema; assay: Carrageenan-induced paw edema; type: in vivo, rat
Description: The carrageenan-induced paw edema assay was used as an in vivo indicator of the anti-inflammatory effects of the phyto-percolate. Carrageenan induces local inflammation and edema when injected into the paw pad of a rat (Di Rosa et al., 1971). The development of paw edema is believed to be biphasic (Vinegar et al., 1969). The initial phase is attributable to the local release of histamine and serotonin (Crunkhon et al., 1971) and the second phase is caused by prostaglandin release as a result of COX activation. […] Each treatment group is compared to control.

GM-CSF = assay: ELISA of cytokine secretion by PBMC: GM-CSF; type: cell-based, human; details: PMA added to cultured PBMC
Description: (§1) According to this exemplary embodiment, phyto-percolate and the flow-through/F4 were tested as they appeared in their original concentrations right off the columns, only diluted 1:20 and 1:100 as described herein. The culture of peripheral blood mononuclear cells (“PBMC”) is prepared with two vials of frozen PBMCs that were obtained from normal healthy human subjects by a commercial vendor and were added to 2×10 ml medium and centrifuged. PBMCs were resuspended and cultured in RPMI1640/5% FBS for 24 h. (1 vial of frozen cells in 11 ml medium).
(§2) Treatment agents for this exemplary method comprise three agents: unseparated phyto-percolate (‘PAZ’), fraction 3 (‘F3’), fraction 4 (‘F4’). Treatment concentration for each was 1:20 & 1:100. […]
(§3) According to this exemplary embodiment, seeding, treatment, and detection is accomplished by the following steps. Two dishes of PBMCs were combined and the small amount of PBMCs was stained with 0.4% Trypan blue and the cell number of PBMCs was counted using known techniques.
(§4) In this embodiment, an enzyme linked immunosorbent assay (“ELISA”) analysis of inflammatory cytokine secretion, a protocol provided in a commercial kit for the parallel quantification of the production of human cytokines was employed. […]

TNF-α = assay: ELISA of cytokine secretion by PBMC: TNF-α; type: cell-based, human; details: PMA added to cultured PBMC
Description: as §1, §2, §3, §4

IFN-γ = assay: ELISA of cytokine secretion by PBMC: IFN-γ; type: cell-based, human; details: PMA added to cultured PBMC
Description: as §1, §2, §3, §4

IL-17A = assay: ELISA of cytokine secretion by PBMC: IL-17A; type: cell-based, human; details: PMA added to cultured PBMC
Description: as §1, §2, §3, §4

IL-2 = assay: ELISA of cytokine secretion by PBMC: IL-2; type: cell-based, human; details: PMA added to cultured PBMC (with ionomycin)
Description: as §1, §2, §3, §4

human COX-2 = molecular target: T1, human COX-2 (Homo sapiens, UniProt P35354); assay: in vitro COX-2 inhibition (arachidonic acid to PGE2, EIA); type: biochemical; details: read-out: % COX-2 Inhibition (Individual assay values)
T1 construct: host or cells: Sf21 insect cells
T1 sequence (P35354 18-604): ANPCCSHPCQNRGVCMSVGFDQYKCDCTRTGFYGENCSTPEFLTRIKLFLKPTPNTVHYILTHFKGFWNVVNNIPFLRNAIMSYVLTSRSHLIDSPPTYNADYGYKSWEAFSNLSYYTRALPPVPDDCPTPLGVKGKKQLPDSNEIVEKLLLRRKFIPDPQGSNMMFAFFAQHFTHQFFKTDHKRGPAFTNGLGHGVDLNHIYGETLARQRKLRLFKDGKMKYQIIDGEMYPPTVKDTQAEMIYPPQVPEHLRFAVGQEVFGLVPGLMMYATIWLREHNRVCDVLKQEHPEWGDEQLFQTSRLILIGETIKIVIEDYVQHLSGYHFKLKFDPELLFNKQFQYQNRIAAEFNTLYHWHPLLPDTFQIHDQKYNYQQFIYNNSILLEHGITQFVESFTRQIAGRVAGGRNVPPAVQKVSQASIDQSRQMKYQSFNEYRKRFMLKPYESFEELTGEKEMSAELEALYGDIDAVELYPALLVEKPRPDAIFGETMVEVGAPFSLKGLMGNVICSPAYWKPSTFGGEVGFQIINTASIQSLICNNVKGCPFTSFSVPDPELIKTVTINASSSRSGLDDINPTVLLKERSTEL
Description: Three separate preparations of the phyto-percolate were screened, using an in vitro assay, for COX-2 inhibition. Riendeau et al., Can. J. Physiol. […] Briefly, this assay measured to conversion of 0.3 μM arachidonic acid to PGE2 by human recombinant insect Sf21 cells expression human COX-2. The incubation buffer contained 100 mM Tris-HCl (pH 7.7), 1 mM glutathione, 1 μM hematin, and 500 μM phenol. PGE2 was quantified using an enzyme-linked immunoassay (EIA).
Sample 1 was a sample of diluted phyto-percolate concentrated approximately 100-fold by drying under N2. Sample 2 was prepared by drying a 4800 μl sample of diluted phyto-percolate under N2 and reconstituting it in 96 μl of ddH2O just prior to assay. Sample 3 was prepared by lyophilizing a 4800 μl sample of diluted phyto-percolate and reconstituting it in 96 μl of ddH2O just prior to assay. The concentrations of phyto-percolate used, 100×, 10×, and IX, refer to 10 μl, 1 μl, and 0.1 μl of sample, respectively, in a final assay volume of 100 μl. […] Each sample was assayed in at least three concentrations and the assays were performed in duplicate.

NF-κB = assay: EMSA of DNA-binding activity of NF-κB in cultured PBMC; type: cell-based, human; details: TNF-α (50 ng/ml) added one hour before harvesting
Description: as §1
Treatment agents for this exemplary method comprise three agents: unseparated phyto-percolate (‘PAZ’), fraction 3 (‘F3’), fraction 4 (‘F4’). Treatment concentration for each was 1:20 & 1:100. An exemplary sample preparation method for each agent by dilution is as follows: First, a 1:10 dilution is prepared by combining 0.7 ml agent (either PAZ, F3 or F4)+6.3 ml RPMI1640/5% FBS to obtain a total volume of 7 ml of a 1:10 solution. […]
Analysis of the effect of phyto-percolate or fractions isolated therefrom on the DNA-binding activity of NF-κB in the nuclear protein fractions of the cultured PBMC was determined as follows in this exemplary embodiment: approximately 18.26 mL of suspended PBMC were added to approximately 18 mL of culture medium and 2 mL of this cell suspension (2,718,000 cells in 2 mL) were seeded into each 60 mm culture dish. […]

[2] = 0 hours, oral dose 30 min before carrageenan, n=6

Row | Compound | paw volume, % change from control ([1]; 0 hours) | Mean paw volume ± SD [1, 2] | Mean paw volume ± SD ([1]; 2 hours) | paw volume, % change from control ([1]; 2 hours) | Mean paw volume ± SD ([1]; 4 hours) | paw volume, % change from control ([1]; 4 hours) | Mean paw volume ± SD ([1]; 6 hours) | paw volume, % change from control ([1]; 6 hours) | Mean paw volume ± SD ([1]; 8 hours) | paw volume, % change from control ([1]; 8 hours) | Mean paw volume ± SD ([1]; 20 hours) | paw volume, % change from control ([1]; 20 hours) | further results
1 | CC(=O)Oc1ccccc1C(=O)O [Aspirin, aspirin] | (1%) | 1.25 ± 0.08 mL | 2.22 ± 0.28 mL | (4%) | 2.07 ± 0.23 mL | (−10%) | 1.92 ± 0.18 mL | (−20%) | 1.80 ± 0.18 mL | (−25%) | 1.42 ± 0.16 mL | (−23%) | –
2 | COc1ccc2c(c1)c(CC(=O)O)c(C)n2C(=O)c1ccc(Cl)cc1 [Indomethacin, indomethacin] | (1%) | 1.25 ± 0.05 mL | 2.25 ± 0.23 mL | (7%) | 2.18 ± 0.22 mL | (1%) | 2.00 ± 0.22 mL | (−12%) | 1.83 ± 0.23 mL | (−22%) | 1.37 ± 0.10 mL | (−38%) | –
3 | CCCCCCCCCCCCCC(=O)O[C@@H]1[C@@H](C)[C@@]2(O)[C@@H](C=C(CO)C[C@]3(O)C(=O)C(C)=C[C@@H]23)[C@@H]2C(C)(C)[C@]12OC(C)=O [PMA, phorbol myristate acetate] | – | – | – | – | – | – | – | – | – | – | – | – | secretion of GM-CSF (GM-CSF): approximately 50 pg/100,000 cells; secretion of TNF-α (TNF-α): approximately 50 pg/100,000 cells; secretion of IFN-γ (IFN-γ): approximately 70 pg/100,000 cells; secretion of IL-17A (IL-17A): approximately 3 pg/100,000 cells; secretion of IL-2 (IL-2): approximately 125 pg/100,000 cells
4 | CS(=O)(=O)c1ccc(C2=C(c3ccccc3)C(=O)OC2)cc1 [rofecoxib] | – | – | – | – | – | – | – | – | – | – | – | – | inhibition at 0.01 µM (human COX-2): 11%; inhibition at 0.03 µM (human COX-2): 16%; inhibition at 0.1 µM (human COX-2): 33%; inhibition at 0.3 µM (human COX-2): 55%; inhibition at 1 µM (human COX-2): 88%
5 | TNF-α | – | – | – | – | – | – | – | – | – | – | – | – | DNA-binding activity of NF-κB, relative level (control = 1.0) (NF-κB): ~2.0
